What was measured:
HL60/ADR cells = experiment: Inhibition of MRP-mediated MDR: doxorubicin with or without compound, XTT viability; assay type: cell-based; details: Homo sapiens, 72 h, doxorubicin alone, no MDR inhibitor, control run of the compound in the same table row, 3 days, read-out: IC50 Dox alone
Method: We plated HL60/ADR cells in 96 well microtiter plates (4 x 10^4 cells/well). […] After culturing the cells for 3 days, their viability was quantitated using the XTT dye method to assess mitochondrial function. […] IC50 values are expressed in nM. In all assays the intrinsic antiproliferative or cytotoxic activity of the MDR inhibitors was also determined for HL60/ADR cells.

L1210VMDRC.06 = experiment: MDR sensitization assay: doxorubicin antiproliferative activity with or without MDR inhibitor (MTT/XTT viability); assay type: cell-based, mouse; details: IC50 Dox / IC50 Dox + Inhibitor
Method: To assay the ability of the compounds according to this invention to increase the antiproliferative activity of a drug, cell lines which are known to be resistant to a particular drug may be used. These cell lines include, but are not limited to, the L1210, P388D, CHO and MCF7 cell lines. Alternatively, resistant cell lines may be developed. The cell line is exposed to the drug to which it is resistant, or to the test compound; cell viability is then measured and compared to the viability of cells which are exposed to the drug in the presence of the test compound. […]
Multi-drug resistance assays were conducted by plating cells (2 x 10^3, 1 x 10^4, or 5 x 10^4 cells/well) in 96 well microtiter plates and exposing them to a concentration range of doxorubicin ([…]) as described in Ford et al., Cancer Res., Vol. 50, 1748-1756. […] After culture for 3 days, the viability of cells was quantitated using MTT (Mossman) or XTT dyes to assess mitochondrial function. […]
Results were determined by comparison of the IC50 for doxorubicin alone to the IC50 for doxorubicin+ MDR inhibitor. An MDR ratio was calculated (IC50 Dox/ IC50 Dox + Inhibitor) and the integer value used for comparison of compound potencies.

Molecule | IC50 (HL60/ADR cells) | MDR Ratio 0.5 µM (L1210VMDRC.06; 0.5 µM compound) | MDR Ratio 1.0 µM (L1210VMDRC.06; 1.0 µM compound)
COc1cccc2c1C(=O)c1c(O)c3c(c(O)c1C2=O)C[C@@](O)(C(=O)CO)C[C@@H]3O[C@H]1C[C@H](N)[C@H](O)[C@H](C)O1 [Dox, doxorubicin] | 5 µM |  | 
(S)-N-Benzyl-2-(methyl-(2-oxo-2-(3,4,5-trimethoxyphenyl)acetyl)amino)-3-phenyl-N-(3-(pyridin-4-yl)-1-(2-(pyridin-4-yl)-propyl)butyl)propionamide [Compound 12] |  | 3.2 | >9.2

Reference: EP0797567B1, “NOVEL AMINO ACID DERIVATIVES WITH IMPROVED MULTI-DRUG RESISTANCE ACTIVITY” (Vertex Pharmaceuticals Incorporated, priority 1994, dated 1996)
